This is an account of results in US12486264B2, “Bicyclic HPK1 inhibitors” (Janssen Pharmaceutica NV, priority 2019, dated 2025).

Experiment [1] concerns the target T1, full-length human Hpk1 (Homo sapiens, UniProt Q92918).
T1 construct: full-length human Hpk1 with an N-terminal Glutatione S-transferase (GST) tag; GST (N); made in house; host or cells: baculovirus/insect cell expression system
Kind of experiment: HPK1 kinase assay (ADP Glo). Type of experiment: biochemical. Conditions: GST-Hpk1, 75 μM ATP solution added, ADP Glo luminescence; for IC50: read-out: Hpk1 biochemical (pIC50) (converted). As for the experimental part: A recombinant fusion protein consisting of full-length human Hpk1 with an N-terminal Glutatione S-transferase (GST) tag was produced in a baculovirus/insect cell expression system. GST-Hpk1 protein was purified from cell lysates by glutathione sepharose affinity chromatography. Kinase inhibition was determined using the ADP Glo™ Kinase Assay kit (Promega, V9101). Test compounds were prepared by serial dilution in dimethyl sulfoxide (DMSO) and 0.1 μl of each dilution was spotted onto a 384-well white Proxiplate (Perkin Elmer, 6008289). 8 μl of kinase assay buffer (40 mM Tris pH 7.5, 2 mM dithiothreitol (DTT), 0.05% Bovine Serum Albumin, 5 mM MgCl2) containing Hpk1 protein was transferred to each well and incubated for 30-45 minutes at room temperature. The enzymatic reaction was started by adding 2 μl of kinase assay buffer containing 75 μM ATP. After 120 minutes, the reaction was stopped by adding 3 μl of ADP Glo™ reagent (Promega, V9101) and incubating 45 minutes at room temperature.

The target in experiment [2] is T2, Hpk1 (Homo sapiens, UniProt Q92918).
T2 construct: expressed in transfected cells; host or cells: HEK293 cells engineered to express Hpk1 and SLP76
As to the kind of experiment: SLP76 phosphorylation assay (HEK293 cells expressing Hpk1 and SLP76). Type of experiment: cell-based. The conditions noted are these: SLP76 phosphorylation at S376, HEK293 cells expressing Hpk1 and SLP76, 4 hours incubation; for IC50: read-out: pSLP76 (HEK293) (pIC50) (converted). As for the experimental part: Hpk1 inhibition in cells was determined by detection of SLP76 phosphorylation at S376 in lysates from HEK293 cells engineered to express Hpk1 and SLP76. Serial dilutions of test compounds were prepared in cell culture medium and 20 μl was transferred into each well of a 96-well plate containing HEK293 cells in 180 μl of culture medium. After incubation for 4 hours at 37° C./5% CO2, the culture medium was removed, plates were put on ice and cells washed with cold Minimal Essential Medium before lysing in 90 μl of cold Mammalian Protein Extraction Reagent (Thermo Scientific, 78501) for 30 minutes on ice. The cell lysates were transferred to another 96-well plate, centrifuged 10 minutes at 3000 rcf (4° C.) and 30 μl transferred to a 96-well High-bind plate (MSD, L15XB-3). After coating overnight at 4° C., the cell lysate was removed, wells were washed with base buffer (TBS, 0.2% Tween-20), and blocking solution (base buffer containing 3% MSD blocker A) was added to each well for 1 hour at room temperature. The blocking solution was removed, the wells were washed with base buffer, and detection antibody (SLP76 pS376) was added in 25 μl base buffer containing 1% MSD blocker A to each well. After a 2 h incubation at room temperature, the detection antibody was removed, wells were washed four times with base buffer, 25 μl SULFO-TAG labeled goat anti-rabbit secondary antibody (MSD, R32AB-1) in base buffer containing 1% MSD blocker A was added to each well and left for 1 hour at room temperature. Wells were washed 4 times with base buffer, 150 μl Read Buffer T was added to each well, and the plates were read in a Mesoscale plate reader (MSD). IC50 values were determined by curve-fitting the electrochemiluminescent signals obtained from the lysates of HEK293 cells expressing Hpk1 and SLP76 treated with test compounds at various concentrations minus the signal obtained from HEK293 cells expressing SLP76 only.

The structures appear in SMILES notation.

T1 sequence (Q92918 whole entry): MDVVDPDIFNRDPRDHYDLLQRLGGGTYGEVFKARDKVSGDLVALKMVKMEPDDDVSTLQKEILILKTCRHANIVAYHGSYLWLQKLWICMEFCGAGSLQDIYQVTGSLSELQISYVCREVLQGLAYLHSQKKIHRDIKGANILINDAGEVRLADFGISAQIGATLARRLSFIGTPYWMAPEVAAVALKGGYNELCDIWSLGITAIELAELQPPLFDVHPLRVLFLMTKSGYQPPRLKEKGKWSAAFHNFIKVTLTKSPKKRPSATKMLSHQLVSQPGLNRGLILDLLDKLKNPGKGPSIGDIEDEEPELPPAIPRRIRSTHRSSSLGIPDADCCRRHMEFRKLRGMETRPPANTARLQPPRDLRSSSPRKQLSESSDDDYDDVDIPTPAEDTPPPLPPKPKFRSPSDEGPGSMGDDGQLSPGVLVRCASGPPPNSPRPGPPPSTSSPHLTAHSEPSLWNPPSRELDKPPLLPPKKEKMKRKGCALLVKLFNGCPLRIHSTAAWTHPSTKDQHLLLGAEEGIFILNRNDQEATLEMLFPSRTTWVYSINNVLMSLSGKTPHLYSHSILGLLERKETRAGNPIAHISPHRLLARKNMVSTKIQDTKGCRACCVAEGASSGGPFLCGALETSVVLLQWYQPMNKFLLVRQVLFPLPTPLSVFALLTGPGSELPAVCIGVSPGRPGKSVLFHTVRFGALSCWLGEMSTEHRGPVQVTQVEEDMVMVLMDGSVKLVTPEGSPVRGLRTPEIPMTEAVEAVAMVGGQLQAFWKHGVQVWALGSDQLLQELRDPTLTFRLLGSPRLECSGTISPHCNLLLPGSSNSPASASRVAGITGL
T2 sequence (Q92918 whole entry): as above

Turning to `CN(C)Cc1cc(-c2cnc3[nH]cc(C(=O)NCC(C)(C)O)c3c2)ccc1C1CCOCC1` [Co. 12], the values for the IC50 in experiment [1] and in experiment [2] were 5.75 nM and 575 nM, respectively.
For `CN(C)Cc1cc(-c2cnc3[nH]cc(C(=O)N[C@@H]4CCC[C@@H]4O)c3c2)ccc1C1CCOCC1` [Co. 18] the same measures were 2.88 nM and 263 nM.
The corresponding values for `Cc1nnc(CNC(=O)c2c[nH]c3ncc(-c4ccc(C5CCOCC5)c(CN(C)C)c4)cc23)o1` [Co. 21] are 33.9 nM and 9550 nM.
For `N#Cc1c[nH]c2ncc(-c3ccc(C4CCOCC4)c(C4CCCN4)c3)cc12` (stereo not shown) [Co. 3] the same measures were 3.16 nM and 257 nM.
For `CC(C)C(CO)CNCc1c[nH]c2ncc(-c3ccc(C4CCOCC4)c(CN(C)C)c3)cc12` (stereo not shown) [Co. 34], the IC50 was 324 nM in experiment [1] and more than 10000 nM in experiment [2].
The corresponding values for `CC(C)[C@H](CO)CNC(=O)c1c[nH]c2ncc(-c3ccc(C4CCOCC4)c(CN(C)C)c3)cc12` (single isomer, unassigned) [Co. 31a] are 3.39 nM and 257 nM.
`CN(C)Cc1cc(-c2cnc3[nH]cc(C(=O)NS(=O)(=O)C4CC4)c3c2)ccc1C1CCOCC1` [Co. 33]: the IC50 in experiment [1] was 9.12 nM; in experiment [2] it was more than 10000 nM.
Turning to `CN(C)Cc1cc(-c2cnc3[nH]cc(C(=O)NCc4nccn4C)c3c2)ccc1C1CCOCC1` [Co. 20a], the figures for the IC50 in experiment [1] and in experiment [2] were 28.2 nM and 6920 nM, respectively.
As to `Cc1c[nH]c2ncc(-c3ccc(C4CCOCC4)c([C@@H]4COCCN4)c3)cc12` [Co. 8], the IC50 in experiment [1] was 4.47 nM; in experiment [2] it was 112 nM.
For `CN(C)Cc1cc(-c2cnc3[nH]cc(C(NCc4ncco4)C(F)(F)F)c3c2)ccc1C1CCOCC1` (stereo not shown) [Co. 37] the same measures were 21.9 nM and 1660 nM.
The corresponding values for `c1cc2cc(-c3ccc(C4CCOCC4)c(C4CCCN4)c3)cnc2[nH]1` (stereo not shown) [Co. 6] are 30.2 nM and 389 nM.
For `CN(C)Cc1cc(-c2cnc3[nH]cc(C(=O)NCC4(O)CCCC4)c3c2)ccc1C1CCOCC1` [Co. 23] the same measures were 10.5 nM and 1580 nM.
As to `CN(C)Cc1cc(-c2cnc3[nH]cc(C(=O)NCc4nccs4)c3c2)ccc1C1CCOCC1` [Co. 24], the values for the IC50 in experiment [1] and in experiment [2] were 4.47 nM and 1550 nM, respectively.
As for `CN(C)Cc1cc(-c2cnc3[nH]cc(C(=O)NCC4(CO)CC4)c3c2)ccc1C1CCOCC1` [Co. 15], the IC50 was 7.94 nM in experiment [1] and 380 nM in experiment [2].
For `Cc1nc(CNC(=O)c2c[nH]c3ncc(-c4ccc(C5CCOCC5)c(CN(C)C)c4)cc23)no1` [Co. 22] the same measures were 58.9 nM and 6460 nM.
For `CN(C)Cc1cc(-c2cnc3[nH]cc(C(=O)NCc4ncco4)c3c2)ccc1C1CCOCC1` [Co. 19] the same measures were 10.2 nM and 1020 nM.
`COCC(C)(O)CNC(=O)c1c[nH]c2ncc(-c3ccc(C4CCOCC4)c(CN(C)C)c3)cc12` (stereo not shown) [Co. 30]: the IC50 in experiment [1] was 15.8 nM; in experiment [2], 2140 nM.
For `CN(C)Cc1cc(-c2cnc3[nH]cc(C(=O)NCC4(CO)COC4)c3c2)ccc1C1CCOCC1` [Co. 16] the same measures were 53.7 nM and more than 10000 nM.
On to `CN(C)Cc1cc(-c2cnc3[nH]cc(C(=O)NCCNC(=O)C(F)F)c3c2)ccc1C1CCOCC1` [Co. 29], for which the IC50 was 12.3 nM in experiment [1] and 1550 nM in experiment [2].
The corresponding values for `Cc1c[nH]c2ncc(-c3ccc(C4CCOCC4)c([C@@H]4CCCN4)c3)cc12` [Co. 1] are 1.86 nM and 288 nM.
Consider `Cc1cc2cc(-c3ccc(C4CCOCC4)c(C4CCCN4)c3)cnc2[nH]1` (stereo not shown) [Co. 2], for which the results for the IC50 in experiment [1] and in experiment [2] were 145 nM and 6760 nM, respectively.
With `CC(C)C(O)CNC(=O)c1c[nH]c2ncc(-c3ccc(C4CCOCC4)c(CN(C)C)c3)cc12` (stereo not shown) [Co. 11], the figures for the IC50 in experiment [1] and in experiment [2] were 21.9 nM and 3550 nM, respectively.
In the case of `c1coc(CNCc2c[nH]c3ncc(-c4ccc(C5CCOCC5)c(C5CCCN5)c4)cc23)n1` (stereo not shown) [Co. 35], the IC50 is 22.9 nM in experiment [1] and 3020 nM in experiment [2].
As for `CC(C)C(CO)CNC(c1c[nH]c2ncc(-c3ccc(C4CCOCC4)c(CN(C)C)c3)cc12)C(F)(F)F` (stereo not shown) [Co. 36], the figures for the IC50 in experiment [1] and in experiment [2] were 40.7 nM and 2630 nM, respectively.
With `CC(CO)CNC(=O)c1c[nH]c2ncc(-c3ccc(C4CCOCC4)c(CN(C)C)c3)cc12` (stereo not shown) [Co. 27], in experiment [1], the “Hpk1 biochemical (pIC50)” value is 7.93. The “pSLP76 (HEK293) (pIC50)” value in experiment [2] came out at 5.94.
On to `CN(C)Cc1cc(-c2cnc3[nH]cc(C(=O)NCC4CCC(=O)N4C)c3c2)ccc1C1CCOCC1` (stereo not shown) [Co. 26], for which the IC50 in experiment [1] is 38.9 nM; in experiment [2], 4270 nM.
For `CN(C)Cc1cc(-c2cnc3[nH]cc(C(=O)NCC(CO)C4CC4)c3c2)ccc1C1CCOCC1` (stereo not shown) [Co. 13] the same measures were 12 nM and 759 nM.
The corresponding values for `CN(C)Cc1cc(-c2cnc3[nH]cc(C(=O)N(C)C)c3c2)ccc1C1CCOCC1` [Co. 20b] are 93.3 nM and 7240 nM.
For `CC(=O)N(C)CCNC(=O)c1c[nH]c2ncc(-c3ccc(C4CCOCC4)c(CN(C)C)c3)cc12` [Co. 32] the same measures were 66.1 nM and 1580 nM.
As for `CC(C)[C@@H](CO)CNC(=O)c1c[nH]c2ncc(-c3ccc(C4CCOCC4)c(CN(C)C)c3)cc12` (single isomer, unassigned) [Co. 31b], the IC50 was 26.3 nM in experiment [1] and 1320 nM in experiment [2].
As to `CN(C)Cc1cc(-c2cnc3[nH]cc(C(=O)NCC4(CO)CCCC4)c3c2)ccc1C1CCOCC1` [Co. 17], the IC50 is 3.8 nM in experiment [1] and 251 nM in experiment [2].
For `N#CCc1c[nH]c2ncc(-c3ccc(C4CCOCC4)c([C@@H]4CCCN4)c3)cc12` [Co. 4] the same measures were 11.2 nM and 120 nM.
